Data taken from US20250032409A1, “TREATMENT OF LOW-GRADE INTERMEDIATE-RISK NON-MUSCLE-INVASIVE BLADDER CANCER WITH A THERMALLY GELLING PHARMACEUTICAL COMPOSITION CONTAINING MITOMYCIN” (priority 2023, published 2025).

Legend:
LG NMIBC = details: dose-intensive administration as primary therapy for LG NMIBC; cited from earlier work
[1] = OPTIMA II: mitomycin plasma concentrations; format: in vivo, human
[2] = human, plasma, other: instillation, read-out: Mitomycin plasma concentration, mean (standard deviation)

Compound: CO[C@@]12[C@H](COC(N)=O)C3=C(C(=O)C(C)=C(N)C3=O)N1C[C@@H]1N[C@@H]12 [Mitomycin]
- CR rates (LG NMIBC): 50-60%
- Mitomycin plasma concentration, mean (standard deviation) ([1]; Pre-instillation, 6 patients, UGN-102): 0 ng/mL
- AUC ([1]; human, plasma, other: instillation, read-out: Concentration-time Curve (AUC) - Mean (standard deviation)): 5.69 ng·h/mL
- concentration at 0.5 h [1, 2]: 0.75 ng/mL
- concentration at 1 h [1, 2]: 0.6 ng/mL
- concentration at 2 h [1, 2]: 0.34 ng/mL
- concentration at 3 h [1, 2]: 1.88 ng/mL
- concentration at 4 h [1, 2]: 1.93 ng/mL
- concentration at 5 h [1, 2]: 0.57 ng/mL
- concentration at 6 h [1, 2]: 0.32 ng/mL
- Cmax ([1]; human, plasma, other: intravesical instillation (via urethral catheter), read-out: Concentration (Cmax)): 2.27 ng/mL
